Reference: US8883963B2 (Cadila Healthcare Limited, priority 2007, dated 2014)

Experiments:
Human GLP-1 receptor = molecular target: T1, Human GLP-1 receptor (Homo sapiens, UniProt P43220); test: In vitro Human GLP-1 R agonist activity (cyclic AMP determination) in CHO/human GLP1R cells; type: cell-based
T1 construct: The full-length cDNA was cloned in pcDNA3.1(+); expressed in transfected cells
Experimental: The novel peptidomimetics were screened for Human GLP-1 receptor (HGLP-1 R) agonist activity (in vitro), using the cAMP cell-based assay, in stably transfected CHO/human GLP1R cells. […] CHO cells were grown in Ham's F12 medium containing L-Glutamine (2 mM), HEPES (25 mM), NaHCO3 (1.1 g/L) and supplemented with NewBorn Calf Serum (NBCS; 10%), Penicillin (50 U/ml (v/v)) and Streptomycin (50 ug/ml (v/v)). Cells were split every 3 days 1:8.
The cDNA encoding the human GLP-1 receptor was isolated by RT-PCR according to standard protocol. The full-length cDNA was cloned in pcDNA3.1(+). […] Clones expressing the receptor were generated by G418 (800 μg/ml active, Sigma) selection. The stable clones were thereafter maintained at 500 ug/ml (G418). The selected clone was used between passages 9-25 for cAMP assays.
The trypsin was inactivated using Ham's F12 medium containing 10% NBCS and the cells were suspended in 2 ml of complete medium. […] The medium was aspirated off from the 12 well plate and the cells were washed once using Ham's F12 (plain). […] The cells were incubated with the test compounds for 30 min in humidified atmosphere and 37° C. After the incubation, the medium was removed and cells were washed once with plain Ham's F12. Subsequently, the cells were lysed by adding 500 ul of ice cold 0.1 N HCl to each well and shaking for 30 minutes at 200 rpm. The cells were then scrapped, the lysate was collected in micro centrifuge tubes and centrifuged at 12000 rpm for 10 min to remove the debris. 300 ul of supernatant from each micro-centrifuge tube was then removed into a glass tube and dried under N2 for 30 min, for cAMP estimation. The total cAMP was estimated from the sample according to the manufacturer's protocol using Cyclic AMP immunoassay kit (R&D systems, Minneapolis. MN). The remaining supernatant is used to determine the protein concentration using micro BCA (Sigma). Data is calculated as percent of control (Vehicle: water) and expressed as Mean±SD.

human glucagon receptor = molecular target: T2, human glucagon receptor (Homo sapiens, UniProt P47871); test: In vitro human glucagon antagonist activity (inhibition of cAMP production) in CHO/human glucagon R cells; type: cell-based; conditions: with saturated concentration of glucagon peptide
T2 construct: The full-length cDNA was cloned in pcDNA3.1 (Invitrogen); expressed in transfected cells

DPP IV = DPP IV (Homo sapiens, UniProt P27487); test: Stability against DPP IV enzyme; type: in vitro ADME; conditions: 37° C.; for % degradation of peptidomimetics in 24 h when incubated with DPP-IV enzyme: 2 μM peptidomimetic; for half-life at 2 μM: DPP IV enzyme, pH 7.8, 2 μM peptidomimetic, read-out: half-life (t1/2) when incubated with DPP-IV enzyme
Experimental: (§1) Reactions were terminated by the addition of TFA/H2O (15 mL, 10% (v/v)). […] The column was equilibrated with TFA/H20, at a flow rate of 1 mL/min.

[1] = Stability in human plasma; type: in vitro ADME; conditions: 2 μM peptidomimetic, pooled human plasma, 37° C.; for half-life at 2 μM: pH 7.8, read-out: half-life (t1/2) when incubated with human plasma
Experimental: as §1

[2] = Stability in simulated gastric fluid; type: in vitro ADME; conditions: 2 μM peptidomimetic, simulated gastric fluid pH 1.5, 37° C.; for half-life at 2 μM: read-out: half-life (t1/2) when incubated with simulated gastric fluid
Experimental: as §1

[3] = Stability in simulated intestinal fluid; type: in vitro ADME; conditions: 2 μM peptidomimetic, simulated intestinal fluid pH 7.5, 37° C.; for half-life at 2 μM: read-out: half-life (t1/2) when incubated with simulated intestinal fluid
Experimental: as §1

[4] = Stability in liver microsomes; type: in vitro ADME; conditions: 2 μM peptidomimetic, human liver microsomes, 37° C.; for half-life at 2 μM: pH 7.8, read-out: half-life (t1/2) when incubated with liver microsomes
Experimental: as §1

T1 sequence (P43220 24-463): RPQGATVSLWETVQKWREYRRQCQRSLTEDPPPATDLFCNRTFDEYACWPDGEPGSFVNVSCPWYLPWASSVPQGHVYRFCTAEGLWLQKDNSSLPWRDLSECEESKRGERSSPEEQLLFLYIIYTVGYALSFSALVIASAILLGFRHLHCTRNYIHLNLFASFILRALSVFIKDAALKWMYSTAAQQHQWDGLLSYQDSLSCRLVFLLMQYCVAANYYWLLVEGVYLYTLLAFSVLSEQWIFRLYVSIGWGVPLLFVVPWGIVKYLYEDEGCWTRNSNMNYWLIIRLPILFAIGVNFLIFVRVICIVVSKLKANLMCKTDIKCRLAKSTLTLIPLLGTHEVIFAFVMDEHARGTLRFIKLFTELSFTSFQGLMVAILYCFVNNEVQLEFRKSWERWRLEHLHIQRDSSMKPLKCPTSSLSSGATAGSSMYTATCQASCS
DPP IV, sequence (P27487 whole entry, species assumed): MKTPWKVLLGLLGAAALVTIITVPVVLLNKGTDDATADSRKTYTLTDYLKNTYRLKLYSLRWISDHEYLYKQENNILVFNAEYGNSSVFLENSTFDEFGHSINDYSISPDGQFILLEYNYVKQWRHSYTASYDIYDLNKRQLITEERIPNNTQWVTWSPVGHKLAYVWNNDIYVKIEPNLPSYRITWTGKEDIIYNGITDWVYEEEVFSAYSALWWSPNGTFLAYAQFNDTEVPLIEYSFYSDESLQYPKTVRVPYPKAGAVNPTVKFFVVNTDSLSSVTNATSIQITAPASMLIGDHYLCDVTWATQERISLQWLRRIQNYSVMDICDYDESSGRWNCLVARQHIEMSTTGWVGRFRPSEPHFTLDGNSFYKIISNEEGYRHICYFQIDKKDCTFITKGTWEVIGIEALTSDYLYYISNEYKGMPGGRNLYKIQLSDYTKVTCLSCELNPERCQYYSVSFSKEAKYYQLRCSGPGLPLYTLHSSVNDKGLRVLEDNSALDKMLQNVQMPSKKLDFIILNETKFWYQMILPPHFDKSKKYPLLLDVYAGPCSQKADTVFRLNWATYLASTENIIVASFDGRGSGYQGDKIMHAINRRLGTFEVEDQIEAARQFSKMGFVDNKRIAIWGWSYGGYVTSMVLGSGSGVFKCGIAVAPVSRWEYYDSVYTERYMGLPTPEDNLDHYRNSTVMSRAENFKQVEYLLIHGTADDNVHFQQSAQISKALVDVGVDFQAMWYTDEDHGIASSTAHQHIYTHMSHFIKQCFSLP
T2 sequence (P47871 26-477): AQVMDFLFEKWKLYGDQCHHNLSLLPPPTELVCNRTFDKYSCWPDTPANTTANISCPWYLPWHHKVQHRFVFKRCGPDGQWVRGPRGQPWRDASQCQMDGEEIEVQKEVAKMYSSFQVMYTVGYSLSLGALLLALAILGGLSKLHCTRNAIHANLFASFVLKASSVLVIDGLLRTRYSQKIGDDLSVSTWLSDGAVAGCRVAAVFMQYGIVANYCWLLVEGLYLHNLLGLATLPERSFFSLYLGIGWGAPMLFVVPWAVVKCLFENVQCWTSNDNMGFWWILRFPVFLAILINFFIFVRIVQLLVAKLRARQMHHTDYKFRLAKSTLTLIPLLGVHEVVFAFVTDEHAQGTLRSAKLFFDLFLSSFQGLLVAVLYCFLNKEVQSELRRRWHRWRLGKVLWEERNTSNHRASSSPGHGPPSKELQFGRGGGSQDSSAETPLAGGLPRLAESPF

Row | Structure (SMILES) | Human GLP-1 R activity (cAMP release), % activity with respect to control (Human GLP-1 receptor; 1 nM test compound) [%] | Human GLP-1 R activity (cAMP release), % activity with respect to control (Human GLP-1 receptor; 10 nM test compound) [%] | Human GLP-1 R activity (cAMP release), % activity with respect to control (Human GLP-1 receptor; 100 nM test compound) [%] | Human GLP-1 R activity (cAMP release), % activity with respect to control (Human GLP-1 receptor; 1 μM test compound) [%] | Human GLP-1 R activity (cAMP release), % activity with respect to control (Human GLP-1 receptor; 10 μM test compound) [%] | Human Glucagon receptor antagonistic activity shown as inhibition of cAMP production of Glucagon peptide (human glucagon receptor; 1 nM test compound) [pmol/ml/μg prt] | Human Glucagon receptor antagonistic activity shown as inhibition of cAMP production of Glucagon peptide (human glucagon receptor; 10 nM test compound) [pmol/ml/μg prt] | Human Glucagon receptor antagonistic activity shown as inhibition of cAMP production of Glucagon peptide (human glucagon receptor; 100 nM test compound) [pmol/ml/μg prt] | Human Glucagon receptor antagonistic activity shown as inhibition of cAMP production of Glucagon peptide (human glucagon receptor; 1 μM test compound) [pmol/ml/μg prt] | Human Glucagon receptor antagonistic activity shown as inhibition of cAMP production of Glucagon peptide (human glucagon receptor; 10 μM test compound) [pmol/ml/μg prt] | % degradation of peptidomimetics in 24 h when incubated with DPP-IV enzyme (DPP IV) [%] | half-life at 2 μM (DPP IV) [h] | % degradation of peptidomimetics in 24 h when incubated with human plasma [1] [%] | half-life at 2 μM [1] [h] | % degradation of peptidomimetics in 24 h when incubated with simulated gastric fluid [2] [%] | % degradation of peptidomimetics in 24 h when incubated with simulated intestinal fluid [3] [%] | % degradation of peptidomimetics in 24 h when incubated with liver microsomes [4] [%] | half-life at 2 μM [4] [h] | half-life at 2 μM [2] [h] | half-life at 2 μM [3] [h] | also measured
1 | CCc1cc(OC)ccc1-c1ccc(CC(NC(=O)[C@H](CC(=O)O)NC(=O)[C@H](CO)NC(=O)[C@@H](NC(=O)C(C)(Cc2ccccc2F)NC(=O)[C@@H](NC(=O)CNC(=O)C(CCC#N)NC(=O)C(C)(C)NC(=O)[C@@H](N)Cc2c[nH]cn2)[C@H](C)O)[C@H](C)O)C(=S)NC(CCCc2ccccc2F)C(N)=O)cc1 (single isomer, unassigned) [compound 168] | 96 ± 0.09 | 99 ± 0.07 | 99 ± 0.04 | 99 ± 0.01 | 99 ± 0.08 | 21 ± 0.11 | 19 ± 0.02 | 18 ± 0.07 | 18 ± 0.03 | 16 ± 0.02 | 72 | 9 | 70 | 8 | 12 | 42 | 78 | 1 |  |  | half-life (t1/2) when incubated with simulated gastric fluid [2]: (8) h; half-life (t1/2) when incubated with simulated intestinal fluid [3]: (6) h
2 | CCc1cc(OC)ccc1-c1ccc(CC(NC(=O)[C@H](CC(=O)O)NC(=O)[C@H](CO)NC(=O)[C@@H](NC(=O)C(C)(Cc2ccccc2F)NC(=O)[C@@H](NC(=O)CNC(=O)C(CCC#N)NC(=O)C(C)(C)NC(=O)[C@H](Cc2c[nH]cn2)NC(C)=O)[C@@H](C)O)[C@@H](C)O)C(=O)NC(CCCc2ccccc2F)C(N)=O)cc1 (single isomer, unassigned) [compound 207] | 40 ± 0.11 | 81 ± 0.09 | 89 ± 0.06 | 96 ± 0.14 | 99 ± 0.19 | 0 | 0 | 0 | 0 | 0 | 00 | > 24 | 00 | > 24 | 00 | 00 | 26 |  | > 24 | > 24 | half-life (t1/2) when incubated with liver microsomes [4]: (5) h
3 | CCc1cc(OC)ccc1-c1ccc(CC(CNC(CCCc2ccccc2)C(N)=O)NC[C@H](CC(=O)O)NC(=O)[C@H](CO)NC(=O)[C@@H](NC(=O)C(C)(Cc2ccccc2F)NC(=O)[C@@H](NC(=O)CNC(=O)[C@H](CCC(N)=O)NC(=O)C(C)(C)NC(=O)[C@H](Cc2c[nH]cn2)NC(=O)OC)[C@@H](C)O)[C@@H](C)O)cc1 (single isomer, unassigned) [compound 194] | 38 ± 0.11 | 77 ± 0.16 | 85 ± 0.11 | 94 ± 0.08 | 97 ± 0.05 | 18 ± 0.12 | 16 ± 0.11 | 12 ± 0.13 | 8 ± 0.12 | 6 ± 0.18 | 00 | > 24 | 00 | > 24 | 43 | 00 | 84 | 2 | 4 | > 24 | 
4 | CCc1cc(OC)ccc1-c1ccc(CC(NC(=S)[C@H](CC(=O)O)NC(=O)[C@H](CO)NC(=O)[C@@H](NC(=O)C(C)(Cc2ccccc2F)NC(=O)[C@@H](NC(=O)CNC(=O)C(CCC#N)NC(=O)C(C)(C)NC(=O)[C@@H](N)Cc2c[nH]cn2)[C@H](C)O)[C@H](C)O)C(=S)NC(CCCc2ccccc2F)C(N)=O)cc1 (single isomer, unassigned) [compound 180] | 40 ± 0.11 | 81 ± 0.09 | 89 ± 0.06 | 96 ± 0.14 | 99 ± 0.19 |  |  |  |  |  | 00 | > 24 | 00 | > 24 | 50 | 00 | 86 | 2 | 4 | > 24 | 
5 | CCc1cc(OC)ccc1-c1ccc(CC(CNC(CCCc2ccccc2)C(N)=O)NC(=O)[C@H](CC(=O)O)NC(=O)[C@H](CO)NC(=O)[C@@H](NC(=O)C(C)(Cc2ccccc2F)NC(=O)[C@@H](NC(=O)CNC(=O)C(CCC#N)NC(=O)C(C)(C)NC(=O)[C@@H](N)Cc2c[nH]cn2)[C@H](C)O)[C@H](C)O)cc1 (single isomer, unassigned) [compound 190] | 41 ± 0.09 | 82 ± 0.07 | 87 ± 0.04 | 95 ± 0.01 | 98 ± 0.08 |  |  |  |  |  | 00 | > 24 | 00 | > 24 | 45 | 00 | 85 | 2 | 4 | > 24 | 
